Assay results from patent publication US5292884A, “Cyclic hydroxamic acids” (Biomide Investment Limited Partnership, priority 1992, dated 1994).

The compounds below were run against T1, 12-lipoxygenase (Sus scrofa, UniProt P16469) (assay: 12-lipoxygenase inhibition in porcine leukocyte cytosol ([1-14C] arachidonic acid conversion to 12-HETE, TLC)). Conditions: porcine leukocyte cytosol 0.075 mg/mL, pH 8.0, 5 min preincubation, 5 μM arachidonic acid, 15 min at 37° C.
T1 construct: porcine Leukocyte cytosol in buffer; from tissue; host or cells: porcine leukocyte cytosol
T1 sequence (P16469 1-663): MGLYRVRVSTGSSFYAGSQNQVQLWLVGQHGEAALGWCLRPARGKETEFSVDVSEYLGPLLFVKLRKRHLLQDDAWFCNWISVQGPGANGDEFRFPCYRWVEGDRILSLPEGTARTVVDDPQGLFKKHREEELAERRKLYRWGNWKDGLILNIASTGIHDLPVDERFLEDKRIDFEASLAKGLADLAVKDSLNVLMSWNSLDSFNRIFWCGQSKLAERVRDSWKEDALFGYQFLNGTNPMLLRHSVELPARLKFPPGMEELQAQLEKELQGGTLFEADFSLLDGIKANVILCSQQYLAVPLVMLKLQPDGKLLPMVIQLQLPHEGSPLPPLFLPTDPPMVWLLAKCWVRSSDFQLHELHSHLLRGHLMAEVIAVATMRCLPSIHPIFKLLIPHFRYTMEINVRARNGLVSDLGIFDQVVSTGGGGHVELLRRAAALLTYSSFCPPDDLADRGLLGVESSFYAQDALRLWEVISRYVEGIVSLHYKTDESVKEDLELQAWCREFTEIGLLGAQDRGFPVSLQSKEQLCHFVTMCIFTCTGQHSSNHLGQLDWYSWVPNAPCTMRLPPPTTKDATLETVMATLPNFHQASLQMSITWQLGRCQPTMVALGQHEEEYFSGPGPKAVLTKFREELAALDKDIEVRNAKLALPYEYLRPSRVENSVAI
Type: biochemical
Procedure: The standard assay procedure is as follows:
Compounds of the present invention were added in 3 μL of DMSO at an appropriate concentration to porcine Leukocyte cytosol in buffer (final protein concentration of 0.075 mg/mL in 0.1M HEPES, 2 mM caCl2, 1 mM MgCl2, pH=8.0) and preincubated for 5 min at 37° C. [1-^14 C] arachidonic acid was added (final concentration of 5 μM) and the reactions were incubated for 15 min at 37° C. and terminated by the addition of HCl. Total reaction volume was 100 μL. Assays also included reduced glutathione in the assay at 25 μM or following the assay at 1 mM and/or cold carrier 12-HETE and arachidonic acid added at the end of the incubation at concentrations of 5 and 100 μM, respectively. Sample was extracted with water-saturated ethyl acetate and the extracts were spotted onto TLC plates. The plates were developed with dichloromethane/ethyl acetate/acetic acid in a ratio of 70:30:1. Under these conditions, the Rf's of 12-HETE and arachidonic acid are 0.30 and 0.45 , respectively. The percentage conversion to 12-HETE was calculated from the percentage of the total ^14 C on the TLC plate that coelutes with a standard of 12-HETE.

| SMILES | IC50 [nM] |
| --- | --- |
| CCCCCCCCCCCC[C@@H]1C(=O)N(O)CC[C@@H]1c1ccccc1 (relative stereo) [1(r), cis-1-hydroxy-4-phenyl-3-dodecylpiperidin-2-one] | 800 |
| O=C1[C@@H](CCCc2ccccc2)[C@H](c2ccccc2)CCN1O (relative stereo) [1(u), trans-1-hydroxy-4-phenyl-3-(3-phenylpropyl)-piperidin-2-one] | 1500 |
| CCCCCCCCCCCC[C@@H]1[C@H](c2ccccc2)CCC(=O)N1O (relative stereo) [1(aa), cis-6-Dodecyl-1-hydroxy-5-phenyl-piperidin-2-one] | 800 |
| CCCCCCCC[C@@H]1C[C@H](c2ccc3ccccc3c2)CC(=O)N1O (relative stereo) [1(p), cis-1-hydroxy-4-(2-naphthyl)-6-octylpiperidin-2-one] | 90 |
| O=C1C[C@@H](CCCc2ccccc2)C[C@H](c2ccccc2)N1O (relative stereo) [1(eee), trans-1-Hydroxy-6-phenyl-4-(3-phenylpropyl)-piperidin-2-one] | 3000 |
| CCCCCCCCCCCC[C@@H]1C[C@H](Cc2ccccc2)CC(=O)N1O (relative stereo) [1(ll), cis-4-Benzyl-6-dodecyl-1-hydroxy-piperidin-2-one] | 800 |
| CCCCCCCCCCCC[C@H]1C[C@H](Cc2ccccc2)CC(=O)N1O (relative stereo) [1(mm), trans-4-Benzyl-6-dodecyl-1-hydroxy-piperidin-2-one] | 800 |
| O=C1C[C@@H](c2ccccc2)C[C@H](CCCCCCCc2ccccc2)N1O (relative stereo) [1(m), trans-1-hydroxy-4-phenyl-6-(7-phenylheptyl)-piperidin-2-one] | 200 |
| O=C1CCC(CCCc2ccccc2)C(CCCc2ccccc2)N1O (centres unmarked) [1(fff), 1-Hydroxy-5,6-bis(3-phenyl-propyl)-piperidin-2-one] | 250 |
| CCCCCCCCCC[C@@H]1[C@H](c2ccccc2)CCC(=O)N1O (relative stereo) [1(x), cis-6-Decyl-1-hydroxy-5-phenyl-piperidin-2-one] | 200 |
| O=C1C(c2ccccc2)C(CCCc2ccccc2)CCN1O (centres unmarked) [1(vv), 1-Hydroxy-3-phenyl-4-(3-phenylpropyl)-piperidin-2-one] | 1000 |
